Assay results as given in ChEMBL document CHEMBL1201862, “PubChem BioAssay data set” (2004).
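Compound exposure: 48 hours, 5 concentrations, 96-well plates. GI50 marks 50% less growth.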 Active and inactive are the calls of the source. Rule as the data show it: active = GI50 up to about 1.1 µM and inactive = higher.

How the values were obtained:
Assay in all cases: DTP human tumour cell line panel, 48 h
[1] = test system: 786-0
[2] = test system: A549
[3] = test system: ACHN
[4] = test system: CCRF-CEM
[5] = test system: COLO 205
[6] = test system: DMS-114
[7] = test system: DMS-273
[8] = test system: HCC 2998
[9] = test system: HCT-116
[10] = test system: HL-60
[11] = test system: HOP-18
[12] = test system: HOP-62
[13] = test system: HOP-92
[14] = test system: IGROV-1
[15] = test system: K562
[16] = test system: KM-20L2
[17] = test system: KM12
[18] = test system: LOX IMVI
[19] = test system: LXFL 529
[20] = test system: M14
[21] = test system: M19-MEL
[22] = test system: MOLT-4
[23] = test system: Malme-3M
[24] = test system: NCI-H23
[25] = test system: NCI-H460
[26] = test system: NCI-H522
[27] = test system: OVCAR-3
[28] = test system: OVCAR-4
[29] = test system: OVCAR-5
[30] = test system: OVCAR-8
[31] = test system: RPMI-8226
[32] = test system: RXF 631
[33] = test system: SF-268
[34] = test system: SF-295
[35] = test system: SF-539
[36] = test system: SK-MEL-28
[37] = test system: SK-MEL-2
[38] = test system: SK-MEL-5
[39] = test system: SK-OV-3
[40] = test system: SN12C
[41] = test system: SNB-19
[42] = test system: SNB-75
[43] = test system: SNB-78
[44] = test system: SW-620
[45] = test system: TK-10
[46] = test system: U-251
[47] = test system: UACC-257
[48] = test system: UACC-62
[49] = test system: UO-31
[50] = test system: XF498
[51] = test system: CAKI-1
[52] = test system: DLD-1
[53] = test system: EKVX
[54] = test system: HCT-15
[55] = test system: HT-29
[56] = test system: NCI-H226
[57] = test system: RXF 393
[58] = test system: SR

In the case of `BrC/C=C/C[P+](c1ccccc1)(c1ccccc1)c1ccccc1`, the GI50 [1] is reported as 10.3 µM (inactive), the GI50 [2] is reported as 7.87 µM (inactive) and the GI50 [3] is reported as 12.2 µM (inactive). The GI50 [4] was > 100 µM (inactive), the GI50 [5] was 4.53 µM (inactive) and the GI50 [6] was 27.5 µM (inactive). The GI50 [7] was 2.44 µM (inactive), the GI50 [8] was 35.2 µM (inactive) and the GI50 [9] was 3.97 µM (inactive). For the same compound, the GI50 [10] was 2.54 µM (inactive), the GI50 [11] was 67 µM (inactive) and the GI50 [12] was 19.6 µM (inactive). The GI50 [13] was 11.7 µM (inactive), the GI50 [14] was 55.5 µM (inactive) and the GI50 [15] was 2.43 µM (inactive). The GI50 [16] was 27.2 µM (inactive), the GI50 [17] was 4.29 µM (inactive) and the GI50 [18] was 10.4 µM (inactive). For the same compound, the GI50 [19] was 1.7 µM (inactive), the GI50 [20] was 13.7 µM (inactive) and the GI50 [21] was 10.8 µM (inactive). For the same compound, the GI50 [22] was > 100 µM (inactive), the GI50 [23] was 12.4 µM (inactive) and the GI50 [24] was 32.3 µM (inactive). The GI50 [25] was 7.46 µM (inactive), the GI50 [26] was 12.4 µM (inactive) and the GI50 [27] was 7.28 µM (inactive). The GI50 [28] was 41.1 µM (inactive), the GI50 [29] was 31 µM (inactive) and the GI50 [30] was 3.91 µM (inactive). For the same compound, the GI50 [31] was 0.927 µM (active), the GI50 [32] was > 100 µM (inactive) and the GI50 [33] was 15.7 µM (inactive). For the same compound, the GI50 [34] was 13.1 µM (inactive), the GI50 [35] was 1.52 µM (inactive) and the GI50 [36] was 33.3 µM (inactive). The GI50 [37] was 10.8 µM (inactive), the GI50 [38] was 11.1 µM (inactive) and the GI50 [39] was 86.5 µM (inactive). The GI50 [40] was 19.5 µM (inactive), the GI50 [41] was 21.3 µM (inactive) and the GI50 [42] was 19.8 µM (inactive). For the same compound, the GI50 [43] was 21 µM (inactive), the GI50 [44] was 6.52 µM (inactive) and the GI50 [45] was 11.6 µM (inactive). The GI50 [46] was 24 µM (inactive), the GI50 [47] was 8.57 µM (inactive) and the GI50 [48] was 9.04 µM (inactive). For the same compound, the GI50 [49] was 34.2 µM (inactive) and the GI50 [50] was 11.1 µM (inactive).

`O=C(CC(=O)c1ccc([N+](=O)[O-])cc1)C(=O)Nc1nccs1` was tested, and the GI50 [1] was > 100 µM (inactive), the GI50 [2] was > 100 µM (inactive) and the GI50 [3] was > 100 µM (inactive). The GI50 [51] was > 100 µM (inactive), the GI50 [4] was > 100 µM (inactive) and the GI50 [52] was > 100 µM (inactive). For the same compound, the GI50 [6] was > 40.5 µM (inactive), the GI50 [7] was > 100 µM (inactive) and the GI50 [53] was > 100 µM (inactive). For the same compound, the GI50 [8] was > 100 µM (inactive), the GI50 [54] was greater than 100 µM and the GI50 [10] was > 100 µM (inactive). The GI50 [11] was > 100 µM (inactive), the GI50 [12] was > 100 µM (inactive) and the GI50 [13] was > 100 µM (inactive). The GI50 [55] was > 100 µM (inactive), the GI50 [14] was > 100 µM (inactive) and the GI50 [15] was > 100 µM (inactive). For the same compound, the GI50 [16] was > 100 µM (inactive), the GI50 [17] was > 100 µM (inactive) and the GI50 [18] was > 100 µM (inactive). For the same compound, the GI50 [19] was > 100 µM (inactive), the GI50 [20] was > 100 µM (inactive) and the GI50 [22] was > 100 µM (inactive). For the same compound, the GI50 [23] was > 100 µM (inactive), the GI50 [56] was > 100 µM (inactive) and the GI50 [24] was > 100 µM (inactive). For the same compound, the GI50 [25] was > 100 µM (inactive), the GI50 [26] was > 100 µM (inactive) and the GI50 [27] was > 100 µM (inactive). For the same compound, the GI50 [28] was > 100 µM (inactive), the GI50 [29] was > 100 µM (inactive) and the GI50 [31] was > 100 µM (inactive). For the same compound, the GI50 [57] was > 100 µM (inactive), the GI50 [32] was > 100 µM (inactive) and the GI50 [33] was > 100 µM (inactive). The GI50 [35] was > 100 µM (inactive), the GI50 [36] was > 81.5 µM (inactive) and the GI50 [37] was > 100 µM (inactive). The GI50 [38] was > 100 µM (inactive), the GI50 [39] was > 100 µM (inactive) and the GI50 [40] was > 100 µM (inactive). The GI50 [41] was > 100 µM (inactive), the GI50 [42] was > 100 µM (inactive) and the GI50 [43] was > 100 µM (inactive). The GI50 [58] was > 100 µM (inactive), the GI50 [44] was > 100 µM (inactive) and the GI50 [45] was > 100 µM (inactive). The GI50 [46] was > 100 µM (inactive), the GI50 [48] was > 100 µM (inactive) and the GI50 [49] was > 100 µM (inactive). The GI50 [50] was > 100 µM (inactive).
